Assay [1] has as its system intracellular GSH in NCI/ADR-Res, UMSCC 22A, and SKOV-3 cells. Nature of the assay: GSH-Glo Glutathione Assay, intracellular GSH level. The assay is classed as cell-based. The conditions noted are these: BSO 1 mM, 8 h. The method, then:
(§1) It has been reported that GSH levels in tumor tissues, such as ovarian, head and neck, breast, and lung cancer are higher than that in normal tissues. To probe whether the high GSH level is also prevail in cancer cells in vitro, GSH-Glo™ Glutathione Assay was employed. Briefly, tumor and normal cells were seeded in 96-well white plate (5,000 cells/well) overnight prior to the study. BSO (1 mM) or GSH-MME (5 mM) in culture medium was added. For control group, only fresh culture medium was added. Cells were incubated for 8 h, and the intracellular GSH concentration was measured by GSH-Glo™ Glutathione Assay according to the manufacturer's instruction.
(§2) Accordingly, glutathione-monomethylester (GSH-MME, 5 mM) and buthionine sulfoxamine (BSO, 1 mM) were employed to boost or deplete the intracellular GSH level in normal cells (NIH 3T3, BNL CL.2, KC, and MCF 10A) or cancer cells (NCI/ADR-Res, HCT 116, UMSCC 22A, SKOV-3, and MDA-MB-231), respectively.

Assay [2] has as its system intracellular GSH in normal cells (NIH 3T3, BNL CL.2, KC, and MCF 10A). The conditions noted are these: GSH-MME 5 mM, 8 h. The method, then: as §1, §2
Assay [3] concerns SKOV-3 cells. Description: Cell cycle analysis by flow cytometry. The conditions noted are these: 41.58 μM, 12 h, FIG. 14. The assay is classed as cell-based. The method, then:
FIG. 14 presents cell cycle analysis of SKOV-3 cells after treated with 41.58 μM of PDA-PEG/Cu2+ for 12 h. Flow cytometry spectra (A) and quantitive analysis (B) of cell cycle. Data represent the means±SD, n=3. *p<0.01.
CDKN1C is an inhibitor for G1 cyclin/Cdk complexes and causes cell arrest in G1 phase. To investigate the effect of CDKN1C up-regulation after PDA-PEG/Cu^2+treatment, cell cycle analysis was employed.
Background: A flow cytometer gives signals particle by particle.

Assay [4] relates to SKOV-3 cells. Nature of the assay: Cellular uptake of Cy5 labeled nanoparticles, flow cytometry and confocal microscopy. The assay is classed as cell-based. Conditions: DTNB binds exofacial free thiol groups. The method, then: FIG. 9 presents […] spectra of SKOV-3 (left) and NIH 3T3 (right) cells. Cellular uptake assays were carried out 1 h after the addition of nanoparticles. Scale bars were 20 μm.
FIG. 10 presents the flow cytometry spectra of SKOV-3 (left) and NIH 3T3 (right) cells treated with Cy5 labeled PDA-PEG nanoparticles. Cellular uptake assays were carried out 1 h after the addition of nanoparticles.
PDA-PEG was modified by Cy5 for cellular uptake study. Briefly, cysteamine (0.11 mg, 5% PDA function group) in 500 μL DMSO was added dropwise into 20 mg PDA-PEG in 500 μL DSMO and the reaction mixture was kept at room temperature overnight. After overnight reaction, Cy5-NHS ester (0.39 mg in 390 μL DMSO) was added and the mixture was kept for reacting overnight, following a thoroughly dialysis towards DMSO to remove free Cy5. The concentration of Cy5 in the final product was measured by a microplate reader (SpectraMax® M5. Molecular Devices Inc) at λex640 and λem680.
To probe the mechanism for PDA-PEG/Cu^2+ selectively killing cancer cells, the cellular uptake of PDA-PEG and PDA-PEG/Cu^2+ nanoparticle was investigated with flow cytometry and confocal microscopy. […] Therefore, the uptake of PDA-PEG/Cu^2+ wasn't the reason for its cancer-cell-selectivity. 5,5′-Dithio-bis-(2-nitrobenzoic acid) (DTNB) is a compound binds the free thiol groups on the surface of cell membrane. […]

Each structure is given as a SMILES string.

The values that follow come from patent US10221271B2, “Polymer/copper combination for targeted cancer therapy” (University of South Carolina, priority 2014, dated 2019).

As to `CCCCS(=N)(=O)CCC(N)C(=O)O` (stereo not shown) [BSO, Buthionine sulfoximine], the “intracellular GSH level” value in assay [1] is recorded as “declined GSH level”. In the case of `COC(=O)CNC(=O)[C@H](CS)NC(=O)CC[C@H](N)C(=O)O` [GSH-MME, Glutathione monomethylester], in assay [2], the “intracellular GSH level” value is listed as “higher intracellular GSH level”. Regarding `[Cl][Cu][Cl]` [Cu^2+ ion, CuCl2], in the assay with SKOV-3 cells [3], the “effect on cell cycle distribution” value was “did not show any effect”. In the case of `O=C(O)c1cc(SSc2ccc([N+](=O)[O-])c(C(=O)O)c2)ccc1[N+](=O)[O-]` [DTNB, 5,5′-Dithio-bis-(2-nitrobenzoic acid)], the “effect on cellular uptake of PDA-PEG” value in the assay on SKOV-3 cells [4] is listed as “significantly inhibited”.
